This data set in a line: Human HepG2 cell viability assay in 384 well format. More on the design: dose 125 nL, time 70.5 hour; cytotoxicity at 70.5 h: concentration not given beside the values. The conditions noted are these: HepG2 cells, read-out: Inhibition. Format: toxicity, cell-based.

With `Cc1cnc(CNC(=O)[C@@]23CCO[C@@H]2CCN(c2ncccn2)C3)cn1`, the cytotoxicity at 70.5 h is -12.7%.
With `CCOCC1CN(S(C)(=O)=O)Cc2nn(C)cc21` (stereo not drawn), the cytotoxicity at 70.5 h is -3.61%.
On to `O=C(OCc1ccccc1)N1CC[C@H]2CC(CO)O[C@@H]2C1` (stereo partly drawn), for which the cytotoxicity at 70.5 h was 4.61%.
The value for `Cc1ccc(N2CCCC3(CCN(C(=O)c4sccc4C)C3)C2)nn1` (stereo not drawn) was -4.03%; that for `CNC(=O)[C@H]1C[C@@H]2CN(C(=O)c3ccncc3F)C[C@@H]2N1C` was -16.9%; that for `Cc1ccc(N2CCCC3(CCN(C(=O)NC4CCCC4)C3)C2)nn1` (stereo not drawn) was -12.8%.
For `Cc1ccc(C(=O)N2CCC3(CCCN(c4ccc(C)nn4)C3)C2)cn1` (stereo not drawn), the cytotoxicity at 70.5 h is -10.8%.
On to `COCC1CN(C(=O)CC2=CCCCC2)Cc2nnn(CC3CC3)c21` (stereo not drawn), for which the cytotoxicity at 70.5 h was -12%.
As for `Cc1nc(N2CCOCC2)nc2c1CCN(C(=O)C1(C#N)CC1)CC2`, the figure is -9.06%.
As for `O=C([C@@H]1CCO[C@@H]2CCN(CC3CCOCC3)C[C@H]21)N1CCCC1`, the cytotoxicity at 70.5 h is -12.7%.
Take `CC(C)NC(=O)N1CCC2(CC1)CC[C@@]1(C(=O)N(C)C)CN(C)C[C@@H]21`: the cytotoxicity at 70.5 h was -11.9%.
Consider `Cc1nc([C@H]2C[C@@H]3CCN(Cc4ccc5c(c4)OCO5)C[C@H]3O2)no1`, for which the cytotoxicity at 70.5 h was -12.3%.
As for `Cc1csc(CN2C[C@@H]3CN(S(C)(=O)=O)CCO[C@@H]3C2)n1`, the figure is 5.33%; as for `Cn1cccc1C(=O)N1C[C@H]2CN(CC3CC3)C(=O)[C@H]2C1`, 6.81%; as for `COCCn1c2c(ccc1=O)CC(NC(=O)c1cscn1)CC2` (stereo not drawn), -4.76%.
The value for `O=C1NCCO[C@H]2CN(C(=O)CC3Cc4ccccc4C3)CC[C@@H]12` was -9.87%.
Take `CC(C)CN1C[C@@H]2CN(C(=O)c3cccn3C)C[C@@H]2C1=O`: the cytotoxicity at 70.5 h was -7.2%.
Turning to `CC(C)CN1C(=O)CO[C@@H]2CNC[C@H]21`, the cytotoxicity at 70.5 h was -10.3%.
Take `COc1cc(N2CCCC3(CCN(c4cncnc4)C3=O)C2)ncn1` (stereo not drawn): the cytotoxicity at 70.5 h is -7.92%.
As to `CCS(=O)(=O)NCC1Cn2nnc(-c3cccc(C)c3)c2CO1` (stereo not drawn), the cytotoxicity at 70.5 h is -5.93%.
As for `CC(=O)N1CCCC2(CCN(c3nncs3)C2)C1` (stereo not drawn), the figure is -4.07%; as for `Cc1nc(CN(C)C(=O)C2CCC(=O)N(CCN(C)C)C2)cs1` (stereo not drawn), 11.1%.
For `O=C(NCc1ccco1)N1CCC(n2cc(-c3ccccn3)nn2)CC1`, the cytotoxicity at 70.5 h was determined as 0.624%.
As for `Cc1nc(CN2CCCCC2CCc2ccc(O)cc2)co1` (stereo not drawn), the figure is -6.18%.
As for `CN(Cc1cn[nH]c1-c1ccc(F)cc1)C(=O)CCC1CC1`, the cytotoxicity at 70.5 h was -13.8%.
Take `O=C(O)C(c1cccc2c1OCC2)N1CCC(N2CCCC2)CC1` (stereo not drawn): the cytotoxicity at 70.5 h was -0.16%.
Take `CC(C)c1cc(C2CCN(C(=O)Cn3nc4ccccc4n3)CC2)[nH]n1`: the cytotoxicity at 70.5 h is -5.96%.
Turning to `COc1ccc([C@@H]2CN(c3cc(OC)ncn3)C[C@H]2N(C)C)cc1`, the cytotoxicity at 70.5 h is 22.1%.
Turning to `Cc1cc(C)nc(CN(C)c2nc(C3CCCC3)nc3c2cnn3C)c1`, the cytotoxicity at 70.5 h is -9.74%.
Regarding `COCCCC1(C(=O)O)CCCN(C(=O)c2ccc(Cl)cc2F)C1` (stereo not drawn), the cytotoxicity at 70.5 h is -10.9%.
On to `Cc1cc(N(C)CCC(O)c2ccccc2)n2nccc2n1` (stereo not drawn), for which the cytotoxicity at 70.5 h was -3.24%.
As for `Cc1cnc(C(=O)N2CCCCC2c2ccc(CN(C)C)cc2)cn1` (stereo not drawn), the figure is 8.8%.
Regarding `Cc1nc2ccccn2c1CN1C[C@@H](CN(C)C)[C@@H](CO)C1`, the cytotoxicity at 70.5 h is -6.27%.
For the compound `NC(=O)Cn1ccnc1C1CCCN(Cc2cccc(Cl)c2F)C1` (stereo not drawn), the cytotoxicity at 70.5 h is -11.7%.
The value for `CCn1nc(CC(C)C)cc1C(=O)NCc1c(C)cc(C)nc1OC` was 2.04%.
Regarding `O=c1[nH]c(NCc2cccc(OC(F)F)c2)nc2c1CCNC2`, the cytotoxicity at 70.5 h was -23.8%.
The value for `COCCc1noc(CN2CC(C)(c3ccccc3)CCC2=O)n1` (stereo not drawn) was -9.17%; that for `CC(C)Oc1cccc(-c2nc3c([nH]2)CCCNC3=O)c1` was 5.17%; that for `Cc1nccc(N2C[C@@H](CN3CCCC3)[C@@H](CO)C2)n1` was -6.17%.
On to `O=C(C1CC2(CCNCC2)CN1)N1CCN(c2cccc(Cl)c2Cl)CC1` (stereo not drawn), for which the cytotoxicity at 70.5 h is -1.58%.
As for `Cc1nc(N2CC[C@@H](c3ccc4ccccc4c3)[C@H](O)C2)no1`, the cytotoxicity at 70.5 h is 3.2%.
For the compound `CN(C)Cc1csc(-c2nccn2Cc2ccc(C(=O)O)cc2)c1`, the cytotoxicity at 70.5 h came out at 19.3%.
The value for `CC(=O)N[C@@H]1CN(Cc2ccccc2C#N)C[C@H]1c1ccc(C)cc1` was -21.6%; that for `Cc1nonc1OCCNC(=O)COc1ccc(F)cc1F` was -12.2%; that for `Cc1nc(CN(C)Cc2nc(-c3ccncc3)no2)co1` was 3.9%.
Regarding `CCN(CC)C(=O)C1CCC(=O)N(CCc2cccc(F)c2)C1` (stereo not drawn), the cytotoxicity at 70.5 h is 19.7%.
The value for `COCCN1CCN(C(=O)c2ccc(C)cc2OC)[C@H]2CS(=O)(=O)C[C@H]21` was -11.7%; that for `CC(C)CN1C(=O)CC[C@H]2CN(C(=O)Cn3ccc(=O)cc3)CC[C@H]21` was 21.4%.
As for `CC(c1cn2ccsc2n1)N1Cc2ncccc2C1=O` (stereo not drawn), the figure is -4.52%.
`CC1(C)CCN(S(=O)(=O)N2CCCC(c3cccc(C(=O)O)c3)C2)CC1` (stereo not drawn): the cytotoxicity at 70.5 h was -10.5%.
As for `Cc1nc(C(=O)N2CCN(S(C)(=O)=O)[C@@H]3CS(=O)(=O)C[C@@H]32)cs1`, the figure is 1.07%; as for `c1ccc(CNc2ncc(CN3CCCN4CCC[C@H]4C3)cn2)cc1`, -3.55%.
As for `Cc1nc(CN(Cc2ccncc2)C2CCN(C)CC2)cs1`, the figure is 8.24%.
In the case of `Cn1nnnc1SCCNC(=O)c1cccc2ccnn12`, the cytotoxicity at 70.5 h is 3.9%.
As for `CN1C(=O)[C@H]2CC[C@@H]1CN(C(=O)Nc1cccc3ccccc13)C2`, the figure is -6.28%.
As for `Cc1noc(-c2ccc(Oc3cccc(CN4CCCC4)c3F)nc2)n1`, the figure is 16.7%; as for `COc1cccc(CNC(=O)N2CCCC(Cn3cc(CN)nn3)C2)c1` (stereo not drawn), -5.66%.
In the case of `CNc1nc(C(=O)N2CCCn3nc(C(=O)N4CCCC4)cc3C2)cs1`, the cytotoxicity at 70.5 h is -11.2%.
As for `CCN1CCN(C(=O)c2ccc3c(c2)CCCN3)[C@H]2CS(=O)(=O)C[C@H]21`, the cytotoxicity at 70.5 h was -5.32%.
The value for `CCN1CC2(CCC1=O)CCN(c1ccc(C(C)=O)cn1)CC2` was -3.76%.
As for `CN(Cc1ccccc1)c1ncccc1CNC(=O)c1ccnn1C`, the figure is -10.4%; as for `CCN(C)C[C@H]1CC[C@@H](Cc2ccc3c(cnn3C)c2)O1`, 11.5%.
Turning to `CCC[C@H]1CN(Cc2ccc3c(c2)OCCO3)C[C@@H]1NC(=O)COC`, the cytotoxicity at 70.5 h was found to be 3.4%.
In the case of `CCN1CC2(CCC1=O)CCN(Cc1cccc(C#N)c1)CC2`, the cytotoxicity at 70.5 h is -4.47%.
The value for `CNS(=O)(=O)CCNCC1(O)CCCN(CCC2CCCCC2)C1=O` (stereo not drawn) was -0.181%.
Consider `CC(=O)NC1CCN(c2ncnc3c2c(C)nn3C)C1` (stereo not drawn), for which the cytotoxicity at 70.5 h is -7.17%.
As for `CC(C)[C@H]1COC(=O)N1Cc1nccn1C(C)C`, the figure is -4.48%; as for `CCc1nc(NC2CCCN(C(=O)c3cccs3)C2)c2cnn(C)c2n1` (stereo not drawn), 7.73%; as for `CC(c1cccc(-c2nccn2CCc2ccccn2)c1)N(C)C` (stereo not drawn), -7.37%.
In the case of `COc1cccc(N2CCN(Cc3nccn3C(C)C)CC2=O)c1`, the cytotoxicity at 70.5 h is -2.87%.
Regarding `COCCN1CCc2c(CNC(=O)c3nccn3C)cncc2C1`, the cytotoxicity at 70.5 h amounted to 3.83%.
On to `Cc1oncc1C(=O)N[C@@H]1CN(Cc2ccco2)C[C@@H]2CCCO[C@@H]21`, for which the cytotoxicity at 70.5 h was -3.33%.
The value for `CC(C)CC(=O)N1CCC2(CC1)OC(C(N)=O)Cn1ccnc12` (stereo not drawn) was -8.87%.
Regarding `CN1CCC2(CC1)CC(NC(=O)c1csnn1)c1ccccc1O2` (stereo not drawn), the cytotoxicity at 70.5 h is -0.343%.
On to `CC(C)N1[C@H](Cn2cncn2)C[C@@H]2CN(Cc3cccs3)CC[C@@H]21`, for which the cytotoxicity at 70.5 h is -0.112%.
Regarding `CN(C)C1CC2(CCN(C(=O)C3(C#N)CC3)CC2)c2ccccc21` (stereo not drawn), the cytotoxicity at 70.5 h is -10.7%.
As for `CCN1C[C@H]2C3(CCN(C(=O)NC(C)C)CC3)CC[C@@]2(C(=O)NC)C1`, the figure is -11.3%.
As for `CCN1C[C@H]2C3(CCN(C(C)=O)CC3)CC[C@@]2(C(=O)N(C)C)C1`, the figure is -8.84%; as for `O=C(c1ccncc1F)N1Cc2nc(COCC3CC3)oc2C1`, -15.8%.
As for `CO[C@@H]1CC[C@H]2[C@H]1OCCN2CCOCc1ccccc1`, the figure is -12.3%; as for `CO[C@H]1CC[C@H]2[C@H]1OCCN2CCOCc1ccccc1`, -11.7%; as for `CC(C)N1[C@H](Cn2cncn2)C[C@@H]2CN(Cc3ccsc3)CC[C@@H]21`, -2.74%.
Turning to `O=C(NC1CC1)N1CCC2(CC1)CC(N1CCOCC1)c1ccccc12` (stereo not drawn), the cytotoxicity at 70.5 h is -10.8%.
For `Cc1cccc(CN2CCC3(CCCN(CC(=O)N(C)C)C3)C2)n1` (stereo not drawn), the cytotoxicity at 70.5 h turned out to be 7.75%.
Regarding `Cc1ccc(N2CCC3(CC2)CC(OCC(C)C)C3)nn1`, the cytotoxicity at 70.5 h is -8.68%.
On to `COCc1n[nH]c2c1CN(Cc1ccccn1)C2`, for which the cytotoxicity at 70.5 h was -9.17%.
Take `Cc1cnc(N2CCC3(CC2)COCCN(C(C)C)C3)nc1`: the cytotoxicity at 70.5 h is -8.08%.
Turning to `O=C(NCc1cnc2n1CCN(Cc1cccs1)C2)c1ccno1`, the cytotoxicity at 70.5 h came out at 18.9%.
As for `CN1CCO[C@@H]2CN(C(=O)c3ccc4ncccc4c3)CC[C@@H]2C1`, the cytotoxicity at 70.5 h was -8.09%.
With `CCOCCN1CCO[C@H]2[C@H](OCc3ccccn3)CC[C@@H]21`, the cytotoxicity at 70.5 h was -11%.
The value for `COCCN1CCC2(CC1)CC(N1CCOCC1)c1ccc(C)cc12` (stereo not drawn) was -8.53%.
For the compound `O=C(Nc1cccnc1)[C@H]1CN(Cc2ccccn2)C[C@H]2OCC[C@@H]12`, the cytotoxicity at 70.5 h is -7.69%.
Consider `c1cncc(OCc2n[nH]c3c2CN(Cc2cccs2)C3)c1`, for which the cytotoxicity at 70.5 h is -6.87%.

Source of the values: ChEMBL document CHEMBL3507680, “University of Dundee, Gates Library screen for HepG2 cell viability”.
